Test system: 299254-011-R-J1-PDC complex spheroids viability
Test: Anticancer human tumor 299254-011-R-J1-PDC patient-derived melanoma cell line growth inhibition [GQUAD]
Conditions: for IC50: curve of first compound; for viability, T/C: stronger effect = lower value
Procedure, shortened: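 Viability of tumor cells grown as complex spheroids with endothelial and stromal cells, exposed to drug combinations. Top concentration at or near clinical Cmax (else 10 microM), diluted in half-log increments.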

[1] = second compound 0.0316 µM, first compound 0.0316 µM
[2] = second compound 0.0316 µM, first compound 0.1 µM
[3] = second compound 0.0316 µM, first compound 0.316 µM
[4] = second compound 0.0316 µM, first compound 1 µM
[5] = second compound 0.0316 µM, first compound 3.16 µM
[6] = second compound 0.0316 µM, first compound 10 µM
[7] = second compound 0.1 µM, first compound 0.0316 µM
[8] = second compound 0.1 µM, first compound 0.1 µM
[9] = second compound 0.1 µM, first compound 0.316 µM
[10] = second compound 0.1 µM, first compound 1 µM
[11] = second compound 0.1 µM, first compound 3.16 µM
[12] = second compound 0.1 µM, first compound 10 µM
[13] = second compound 0.316 µM, first compound 0.0316 µM
[14] = second compound 0.316 µM, first compound 0.1 µM
[15] = second compound 0.316 µM, first compound 0.316 µM
[16] = second compound 0.316 µM, first compound 1 µM
[17] = second compound 0.316 µM, first compound 3.16 µM
[18] = second compound 0.316 µM, first compound 10 µM
[19] = second compound 1 µM, first compound 0.0316 µM
[20] = second compound 1 µM, first compound 0.1 µM
[21] = second compound 1 µM, first compound 0.316 µM
[22] = second compound 1 µM, first compound 1 µM
[23] = second compound 1 µM, first compound 3.16 µM
[24] = second compound 1 µM, first compound 10 µM
[25] = second compound 3.16 µM, first compound 0.0316 µM
[26] = second compound 3.16 µM, first compound 0.1 µM
[27] = second compound 3.16 µM, first compound 0.316 µM
[28] = second compound 3.16 µM, first compound 1 µM
[29] = second compound 3.16 µM, first compound 3.16 µM
[30] = second compound 3.16 µM, first compound 10 µM
[31] = second compound 10 µM, first compound 0.0316 µM
[32] = second compound 10 µM, first compound 0.1 µM
[33] = second compound 10 µM, first compound 0.316 µM
[34] = second compound 10 µM, first compound 1 µM
[35] = second compound 10 µM, first compound 3.16 µM
[36] = second compound 10 µM, first compound 10 µM
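Note: spheroids exposed to the agents for seven days before readout.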
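Throughout, for viability, T/C: percent viability relative to DMSO vehicle control wells = 100%.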

Molecule `O=C(NO)c1cnc(N2CCN(S(=O)(=O)c3ccc4ccccc4c3)CC2)nc1` + Cc1[nH]c2ccc(F)cc2c1-c1nc2c3cccnc3c3ncccc3c2[nH]1 has an IC50 (second compound 0.0316 µM) of 0.496 µM, an IC50 (second compound 0.1 µM) of 0.602 µM and an IC50 (second compound 0.316 µM) of 0.988 µM. The IC50 (second compound 1 µM) was 1.53 µM, the IC50 (second compound 3.16 µM) was 1.3 µM and the IC50 (second compound 10 µM) was 1.48 µM. For the same molecule, the viability, T/C [1] was 119%, the viability, T/C [2] was 98% and the viability, T/C [3] was 76.8%. For the same molecule, the viability, T/C [4] was 9.39%, the viability, T/C [5] was 0.24% and the viability, T/C [6] was 0.27%. It also gave a viability, T/C [7] of 99.2%, a viability, T/C [8] of 111% and a viability, T/C [9] of 90.2%. The viability, T/C [10] was 18.1%, the viability, T/C [11] was 0.2% and the viability, T/C [12] was 0.25%. For the same molecule, the viability, T/C [13] was 91.4%, the viability, T/C [14] was 102% and the viability, T/C [15] was 88.8%. For the same molecule, the viability, T/C [16] was 50.3%, the viability, T/C [17] was 0.17% and the viability, T/C [18] was 0.21%. The viability, T/C [19] was 112%, the viability, T/C [20] was 91.6% and the viability, T/C [21] was 80.9%. For the same molecule, the viability, T/C [22] was 79.2%, the viability, T/C [23] was 0.19% and the viability, T/C [24] was 0.22%. It also gave a viability, T/C [25] of 99.2%, a viability, T/C [26] of 120% and a viability, T/C [27] of 108%. The viability, T/C [28] was 64.5%, the viability, T/C [29] was 0.22% and the viability, T/C [30] was 0.21%. For the same molecule, the viability, T/C [31] was 87.8%, the viability, T/C [32] was 103% and the viability, T/C [33] was 99.6%. For the same molecule, the viability, T/C [34] was 75.4%, the viability, T/C [35] was 0.25% and the viability, T/C [36] was 0.25%.
`Cn1ncnc1[C@H]1c2n[nH]c(=O)c3cc(F)cc(c23)N[C@@H]1c1ccc(F)cc1` + CN(C)c1ccc(Nc2c3ccc(NC(=O)CCN4CCCC4)cc3nc3cc(NC(=O)CCN4CCCC4)ccc23)cc1 was tested, and the IC50 (second compound 0.0316 µM) was > 0.316 µM, the IC50 (second compound 0.1 µM) was > 0.316 µM and the IC50 (second compound 0.316 µM) was > 0.316 µM. The IC50 (second compound 1 µM) was > 0.316 µM, the IC50 (second compound 3.16 µM) was > 0.316 µM and the IC50 (second compound 10 µM) was > 0.316 µM. For the same molecule, the viability, T/C (second compound 0.0316 µM, first compound 0.000999 µM) was 108%, the viability, T/C (second compound 0.0316 µM, first compound 0.00316 µM) was 101% and the viability, T/C (second compound 0.0316 µM, first compound 0.00999 µM) was 100%. It also gave a viability, T/C [1] of 101%, a viability, T/C (second compound 0.0316 µM, first compound 0.0999 µM) of 105% and a viability, T/C [3] of 83.8%. It also gave a viability, T/C (second compound 0.1 µM, first compound 0.000999 µM) of 90.5%, a viability, T/C (second compound 0.1 µM, first compound 0.00316 µM) of 109% and a viability, T/C (second compound 0.1 µM, first compound 0.00999 µM) of 107%. The viability, T/C [7] was 102%, the viability, T/C (second compound 0.1 µM, first compound 0.0999 µM) was 86.9% and the viability, T/C [9] was 87.5%. The viability, T/C (second compound 0.316 µM, first compound 0.000999 µM) was 110%, the viability, T/C (second compound 0.316 µM, first compound 0.00316 µM) was 90.3% and the viability, T/C (second compound 0.316 µM, first compound 0.00999 µM) was 100%. For the same molecule, the viability, T/C [13] was 106%, the viability, T/C (second compound 0.316 µM, first compound 0.0999 µM) was 93.1% and the viability, T/C [15] was 97.8%. For the same molecule, the viability, T/C (second compound 1 µM, first compound 0.000999 µM) was 121%, the viability, T/C (second compound 1 µM, first compound 0.00316 µM) was 84.5% and the viability, T/C (second compound 1 µM, first compound 0.00999 µM) was 98.4%. For the same molecule, the viability, T/C [19] was 92.8%, the viability, T/C (second compound 1 µM, first compound 0.0999 µM) was 98.6% and the viability, T/C [21] was 92.6%. For the same molecule, the viability, T/C (second compound 3.16 µM, first compound 0.000999 µM) was 110%, the viability, T/C (second compound 3.16 µM, first compound 0.00316 µM) was 98.2% and the viability, T/C (second compound 3.16 µM, first compound 0.00999 µM) was 101%. It also gave a viability, T/C [25] of 105%, a viability, T/C (second compound 3.16 µM, first compound 0.0999 µM) of 112% and a viability, T/C [27] of 100%. It also gave a viability, T/C (second compound 10 µM, first compound 0.000999 µM) of 87%, a viability, T/C (second compound 10 µM, first compound 0.00316 µM) of 85.2% and a viability, T/C (second compound 10 µM, first compound 0.00999 µM) of 89.8%. The viability, T/C [31] was 101%, the viability, T/C (second compound 10 µM, first compound 0.0999 µM) was 93.9% and the viability, T/C [33] was 109%.
`CC(C)n1c(=O)n(C)c2cnc3cc(F)c(-c4ccc(OCCCN5CCCCC5)nc4)cc3c21` + CN(C)c1ccc(Nc2c3ccc(NC(=O)CCN4CCCC4)cc3nc3cc(NC(=O)CCN4CCCC4)ccc23)cc1 gave an IC50 (second compound 0.0316 µM) of 9.23 µM, an IC50 (second compound 0.1 µM) of 8.05 µM and an IC50 (second compound 0.316 µM) of 8.13 µM. The IC50 (second compound 1 µM) was 7.22 µM, the IC50 (second compound 3.16 µM) was 5.7 µM and the IC50 (second compound 10 µM) was 2.13 µM. It also gave a viability, T/C [1] of 102%, a viability, T/C [2] of 108% and a viability, T/C [3] of 91.2%. It also gave a viability, T/C [4] of 76.3%, a viability, T/C [5] of 94% and a viability, T/C [6] of 46.7%. For the same molecule, the viability, T/C [7] was 93.4%, the viability, T/C [8] was 79.6% and the viability, T/C [9] was 106%. The viability, T/C [10] was 80.7%, the viability, T/C [11] was 81.3% and the viability, T/C [12] was 42.7%. For the same molecule, the viability, T/C [13] was 86.4%, the viability, T/C [14] was 102% and the viability, T/C [15] was 87%. The viability, T/C [16] was 93.2%, the viability, T/C [17] was 85.7% and the viability, T/C [18] was 42.1%. The viability, T/C [19] was 91.6%, the viability, T/C [20] was 87.1% and the viability, T/C [21] was 79.4%. It also gave a viability, T/C [22] of 77.6%, a viability, T/C [23] of 85.9% and a viability, T/C [24] of 36.5%. For the same molecule, the viability, T/C [25] was 93.9%, the viability, T/C [26] was 81.8% and the viability, T/C [27] was 86.2%. The viability, T/C [28] was 77.2%, the viability, T/C [29] was 61.9% and the viability, T/C [30] was 38.1%. The viability, T/C [31] was 83.2%, the viability, T/C [32] was 79.9% and the viability, T/C [33] was 77%. For the same molecule, the viability, T/C [34] was 64.5%, the viability, T/C [35] was 42.4% and the viability, T/C [36] was 28.9%.
